Laboratory results published in paper PMC13576449, “Small-Molecule Activators of PRMT1: Discovery, SAR Analyses, and Proapoptotic Effects in Pancreatic Cancer Cells” (Journal of Medicinal Chemistry, 2026).

Assays:
PaTu8988T cells = test: Annexin V/PI flow cytometry apoptosis assay, PaTu8988T; type: cell-based, human; settings: for gemcitabine-induced apoptosis, AV/PI flow cytometry, co-treatment: TR-033 5 µM, TR-036 10 µM, ICTR-059 5 µM, after 24 h gemcitabine 1 μM, vs gemcitabine alone
Procedure: 6 Effect of small-molecule modulators on gemcitabine-induced apoptosis and tumor growth of PDAC cells. […] Subsequently, the luminescence-based caspase3/7 assay was performed. The activity of caspase 3/7 in treated cells was normalized to the activity measured in untreated cells (dark gray bar), which was set to 1 (mean SD, n = 6 for PANC-1 and n = 4 for PaTu8988T; *: p ≤ 0.05, **: p ≤ 0.01, ***: p ≤ 0.001, using the student t-test). […] After 24 h, gemcitabine (GEM, 1 μM) was added (+) or not (−) for another incubation of 48 h. Subsequently, the apoptotic cell fraction was quantified in % by flow cytometry using FITC-labeled Annexin V (AV) and propidium iodide (PI) staining (in B: mean ± SD, n = 6 for PANC-1 and n = 5 for PaTu8988T; **: p ≤ 0.01, ***: p ≤ 0.001, ****: p ≤ 0.0001, using the student t-test). […] Viable cells are AV/PI double-negative (AV–/PI–, lower left quadrant, Q4), early apoptotic cells are AV single-positive (AV+/PI– upper left quadrant, Q1), late apoptotic cells are AV/PI double-positive (AV+/PI+, upper right quadrant, Q2), and necrotic cells are PI single-positive (AV–/PI+, lower right quadrant, Q3). The sum of early and late apoptotic cell numbers (Q2+Q3 in %) is indicated in red. D-G: The workflow of the PDAC xenograft experiments in mice is depicted in D. PANC-1 cells (2 × 10^6 cells/mouse) were subcutaneously (s.c.) injected in the right flank of female athymic nude mice. […] Tumor volumes were measured every second day using a digital caliper. […] At the end of the 2 weeks, mice were sacrificed and tumors were dissected (F).
(§1) For quantification of apoptosis by Fluorescence Activated Cell Sorting (FACS), PANC-1 and PaTu8988T cells were seeded in 6-well plates (250 × 10^3 cells/well) and cultured in the absence or presence of compounds. After 24 h, gemcitabine was added or not for another 48 h. After harvesting and washing, unfixed cells (0.5–1 × 10^6) were incubated with FITC-labeled Annexin V and/or PI (BD Pharmingen) according to the manufacturer’s instructions. All samples were analyzed using a BD FACSCalibur flow cytometer (BD Bioscience). Data were acquired using the CellQuestPro program and analyzed with the FlowJo (FlowJo LLC) software.
(§2) After 24 hours, gemcitabine (GEM, 1 µM) was added (+) or not
(§3) (-) for another incubation of 48 hours. Subsequently, the apoptotic cell fraction was assessed by flow cytometry using FITC-labeled Annexin V (AV) and propidium iodide (PI) staining and quantified in % (mean ± SD, n=3-4; ns: not significant, *: p ≤0.05, **: p ≤0.01, ***: p ≤0.001, ****: p ≤0.0001, using the student t-test).

PANC-1 cells = test: Annexin V/PI flow cytometry apoptosis assay, PANC-1; type: cell-based, human; settings: TR-07 10 μM; for gemcitabine-induced apoptosis, AV/PI flow cytometry, co-treatment: TR-033 5 µM, TR-036 10 µM, ICTR-059 5 µM, after 24 h gemcitabine 1 μM, 48 h, vs gemcitabine alone
Procedure: 6 Effect of small-molecule modulators on gemcitabine-induced apoptosis and tumor growth of PDAC cells. […] After 2 h, gemcitabine (GEM) was added at increasing concentrations (10 and 25 nM) or not (−) for another incubation of 72 h. Subsequently, the luminescence-based caspase3/7 assay was performed. The activity of caspase 3/7 in treated cells was normalized to the activity measured in untreated cells (dark gray bar), which was set to 1 (mean SD, n = 6 for PANC-1 and n = 4 for PaTu8988T; *: p ≤ 0.05, **: p ≤ 0.01, ***: p ≤ 0.001, using the student t-test). […] After 24 h, gemcitabine (GEM, 1 μM) was added (+) or not (−) for another incubation of 48 h. Subsequently, the apoptotic cell fraction was quantified in % by flow cytometry using FITC-labeled Annexin V (AV) and propidium iodide (PI) staining (in B: mean ± SD, n = 6 for PANC-1 and n = 5 for PaTu8988T; **: p ≤ 0.01, ***: p ≤ 0.001, ****: p ≤ 0.0001, using the student t-test). […] Viable cells are AV/PI double-negative (AV–/PI–, lower left quadrant, Q4), early apoptotic cells are AV single-positive (AV+/PI– upper left quadrant, Q1), late apoptotic cells are AV/PI double-positive (AV+/PI+, upper right quadrant, Q2), and necrotic cells are PI single-positive (AV–/PI+, lower right quadrant, Q3). The sum of early and late apoptotic cell numbers ([…] in %) is indicated in red. D-G: The workflow of the PDAC xenograft experiments in mice is depicted in D. PANC-1 cells (2 × 10^6 cells/mouse) were subcutaneously (s.c.) injected in the right flank of female athymic nude mice. Small tumor nodules appeared 6 days post-engraftment. […] Tumor volumes were measured every second day using a digital caliper. […] At the end of the 2 weeks, mice were sacrificed and tumors were dissected (F).
as §1, with “software. […]” for “software.”
induced apoptosis in PDAC cell lines.
as §2, §3

Row | Compound | gemcitabine-induced apoptosis, AV/PI flow cytometry, co-treatment (PaTu8988T cells; PaTu8988T, TR-07 10 μM, 48 h) | gemcitabine-induced apoptosis, AV/PI flow cytometry, co-treatment (PANC-1 cells) | viability at 10 µM (PaTu8988T cells; Homo sapiens, PaTu 8988t, 48 h, read-out: Q4, viable cells (AV–/PI–)) | apoptosis, AV/PI flow cytometry, single agent (PaTu8988T cells; PaTu8988T, TR-07 10 μM) | apoptosis, AV/PI flow cytometry, single agent (PANC-1 cells)
1 | CCN(CC)Cc1cccc(N/C=C2\C(=O)NC(=O)c3ccccc32)c1.Cl [TR-036, (Z )-N-(3-{[(1,3-Dioxo-2,3-dihydroisoquinoline-4(1 H )-ylidene)methyl]amino}benzyl)-N -ethylethanaminium chloride] | rather diminished the gemcitabine-triggered cell death | rather diminished the gemcitabine-triggered cell death | – | – | –
2 | CN(C)Cc1cccc(-c2ccc3[nH]c(=O)c4ccccc4c3c2)c1 [TR-033, 2-{3-[(Dimethylamino)methyl]phenyl}phenanthridin-6(5H)-One] | rather diminished the gemcitabine-triggered cell death | rather diminished the gemcitabine-triggered cell death | – | – | –
3 | CN(C)Cc1cccc(CN/C=C2\C(=O)NC(=O)c3ccccc32)c1.Cl [TR-07, (Z)-1-[3-({[(1,3-Dioxo-2,3-dihydroisoquinolin-4(1H)-lidene)methyl]amino}methyl)phenyl]-N,N-dimethylmethanaminium chloride] | significant increase in the early and late apoptotic stages | significant increase in the early and late apoptotic stages | 95.8% | did not significantly induce apoptosis | did not significantly induce apoptosis
4 | (Z)-2-(2-{[(1,3-Dioxo-2,3-dihydroisoquinolin-4(1H)-ylidene)methyl]amino}phenyl)-N,N-dimethylethan-1-aminium chloride [ICTR-059] | weakly enhanced the gemcitabine-induced apoptosis | had no effect | – | – | –
